{
  "source": "patent US20120214847A1",
  "about": "“2-[1-PHENYL-5-HYDROXY-4a-SUBSTITUTED-HEXAHYDROCYCLOPENTA[F]INDAZOL-5-YL]ETHYL PHENYL DERIVATIVES AS GLUCOCORTICOID RECEPTOR LIGANDS” (Merck Sharp & Dohme Corp., priority 2009, published 2012)",
  "data": [
    {"biological_target": "T1, glucocorticoid receptor (Homo sapiens, UniProt P04150)", "T1 construct": "endogenous in cells; host or cells: HeLa (ATCC) cell lysate supernatant", "T1 sequence (P04150 1-777)": "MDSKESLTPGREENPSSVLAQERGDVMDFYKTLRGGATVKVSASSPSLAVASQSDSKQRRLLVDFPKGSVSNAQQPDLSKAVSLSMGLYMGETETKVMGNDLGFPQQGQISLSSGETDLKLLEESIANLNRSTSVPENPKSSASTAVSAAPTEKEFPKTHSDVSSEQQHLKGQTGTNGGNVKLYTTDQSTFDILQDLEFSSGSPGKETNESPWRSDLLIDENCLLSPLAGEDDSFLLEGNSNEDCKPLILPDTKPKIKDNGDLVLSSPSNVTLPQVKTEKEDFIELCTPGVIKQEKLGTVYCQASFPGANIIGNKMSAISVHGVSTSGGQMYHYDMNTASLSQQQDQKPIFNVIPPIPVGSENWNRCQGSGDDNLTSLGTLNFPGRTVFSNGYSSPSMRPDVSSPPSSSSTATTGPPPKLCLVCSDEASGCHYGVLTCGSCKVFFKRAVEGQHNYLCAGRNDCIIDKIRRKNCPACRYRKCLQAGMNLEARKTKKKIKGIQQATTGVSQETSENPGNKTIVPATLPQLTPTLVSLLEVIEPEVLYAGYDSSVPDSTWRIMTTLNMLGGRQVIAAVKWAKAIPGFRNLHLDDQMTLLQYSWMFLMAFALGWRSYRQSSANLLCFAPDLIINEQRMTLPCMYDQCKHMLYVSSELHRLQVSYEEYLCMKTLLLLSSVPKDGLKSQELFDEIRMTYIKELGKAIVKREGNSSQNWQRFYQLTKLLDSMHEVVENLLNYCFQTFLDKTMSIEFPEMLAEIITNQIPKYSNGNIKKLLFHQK", "assay": "Ligand binding assay (GRBind), 3H-dexamethasone displacement in HeLa cell lysate", "conditions": "3H-DEX tracer", "in_short": "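Cytosolic supernatant from HeLa cells in TEGM buffer (pH 7.2, with molybdate) was incubated overnight at 4 °C with 3H-dexamethasone (6 nM trace solution) and serially diluted compound, with 2% ethanol. Bound receptor was captured on hydroxylapatite, filtered and counted by scintillation. IC50s were calculated using dexamethasone as reference.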", "units": {"Ki": "nM"}, "values": [
      {"smiles": "OC(C[C@]1(O)CCC2=Cc3c(cnn3-c3ccc(F)cc3)C[C@@]21C1CC1)c1ccc(F)cn1", "note": "(single isomer, unassigned) [Example 79a]", "Ki": 2.83},
      {"smiles": "NC(=O)c1c(C(F)(F)F)ccnc1CC[C@]1(O)CCC2=Cc3c(cnn3-c3ccc(F)cc3)C[C@@]21C1CC1", "note": "[Example 55, 2-{2-[(4aR,5R)-4a-Cyclopropyl-1-(4-fluorophenyl)-5-hydroxy-1,4,4a,5,6,7-hexahydrocyclopenta[f]indaozol-5-yl]ethyl}-4-(trifluoromethyl)pyridine-3-carboxamide]", "Ki": 2.24},
      {"smiles": "CC[C@]12Cc3cnn(-c4ccccc4)c3C=C1CC[C@@]2(O)CCc1ccccc1C(N)=O", "note": "[Example 20, 2-{2-[(4aS,5R)-4a-Ethyl-5-hydroxy-1-phenyl-1,4,4a,5,6,7-hexahydrocyclopenta[f]indazol-5-yl]ethyl}benzamide]", "Ki": 2.49},
      {"smiles": "CC[C@]12Cc3cnn(-c4ccc(F)cc4)c3C=C1CC[C@@]2(O)CCc1nccc(OC)c1C(F)C(N)=O", "note": "(stereo partly drawn) [Example 65, 2-(2-{2-[(4aS,5R)-4a-Ethyl-1-(4-fluorophenyl)-5-hydroxy-1,4,4a,5,6,7-hexahydrocyclopenta[f]indazol-5-yl]ethyl}-4-methoxypyridin-3-yl)-2-fluoroacetamide]", "Ki": 9.2},
      {"smiles": "CC[C@]12Cc3cnn(-c4cccc(F)c4)c3C=C1CC[C@@]2(O)CCc1ccccc1C(N)=O", "note": "[Example 11, 2-{2-[(4aS,5R)-4a-Ethyl-1-(3-fluorophenyl)-5-hydroxy-1,4,4a,5,6,7-hexahydrocyclopenta[f]indazol-5-yl]ethyl}benzamide]", "Ki": 3.22},
      {"smiles": "CC[C@]12Cc3cnn(-c4ccc(F)cc4)c3C=C1CC[C@@]2(O)CCc1nccc(C2CC2)c1C(=O)OC", "note": "[Example 41, Methyl 4-cyclopropyl-2-{2-[(4aS,5R)-4a-ethyl-1-(4-fluorophenyl)-5-hydroxy-1,4,4a,5,6,7-hexahydrocyclopenta[f]indazol-5-yl]ethyl}pyridine-3-carboxylate]", "Ki": 2.63},
      {"smiles": "CC[C@]12Cc3cnn(-c4ccc(F)cc4)c3C=C1CC[C@@]2(O)CC(O)c1ccc(F)cn1", "note": "(single isomer, unassigned) [Example 69b]", "Ki": 2.91},
      {"smiles": "NC(=O)C(O)c1ccccc1CC[C@]1(O)CCC2=Cc3c(cnn3-c3ccc(F)cc3)C[C@@]21C1CC1", "note": "(single isomer, unassigned) [Example 3b]", "Ki": 1.79},
      {"smiles": "NC(=O)c1ccccc1CC[C@]1(O)CCC2=Cc3c(cnn3-c3ccccc3)C[C@@]21C1CC1", "note": "[Example 29, 2-{2-[(4aR,5R)-4a-Cyclopropyl-5-hydroxy-1-phenyl-1,4,4a,5,6,7-hexahydrocyclopenta[f]indazol-5-yl]ethyl}benzamide]", "Ki": 2.29},
      {"smiles": "CC[C@]12Cc3cnn(-c4ccccc4)c3C=C1CC[C@@]2(O)CC(O)c1ccccn1", "note": "(single isomer, unassigned) [Example 67b]", "Ki": 5.46}
    ]}
  ]
}
